Results on 22 compounds are retold here after patent US20260184707A1, “PHARMACEUTICAL COMPOUNDS FOR THE TREATMENT OF COMPLEMENT MEDIATED DISORDERS” (ALEXION PHARMACEUTICALS, INC., priority 2022, published 2026).

Where only a bound is given, the exact number is not on record here.

The assay addresses T1, Human complement C1s enzyme (Homo sapiens, UniProt P09871).
T1 construct: purified from human serum, Complement Technology, Inc; purchased Complement Technology, Inc; host or cells: human serum (plasma-derived native protein)
T1 sequence (P09871 438-688 limits assumed): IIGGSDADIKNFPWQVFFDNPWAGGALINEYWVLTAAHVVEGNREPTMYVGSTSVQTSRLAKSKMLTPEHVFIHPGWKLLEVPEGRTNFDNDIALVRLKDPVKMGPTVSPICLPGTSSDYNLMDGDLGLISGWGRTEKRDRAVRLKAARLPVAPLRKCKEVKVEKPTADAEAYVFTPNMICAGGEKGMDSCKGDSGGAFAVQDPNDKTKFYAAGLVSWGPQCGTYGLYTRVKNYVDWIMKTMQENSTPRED
T1 sequence (P09871 16-437 partner limits assumed): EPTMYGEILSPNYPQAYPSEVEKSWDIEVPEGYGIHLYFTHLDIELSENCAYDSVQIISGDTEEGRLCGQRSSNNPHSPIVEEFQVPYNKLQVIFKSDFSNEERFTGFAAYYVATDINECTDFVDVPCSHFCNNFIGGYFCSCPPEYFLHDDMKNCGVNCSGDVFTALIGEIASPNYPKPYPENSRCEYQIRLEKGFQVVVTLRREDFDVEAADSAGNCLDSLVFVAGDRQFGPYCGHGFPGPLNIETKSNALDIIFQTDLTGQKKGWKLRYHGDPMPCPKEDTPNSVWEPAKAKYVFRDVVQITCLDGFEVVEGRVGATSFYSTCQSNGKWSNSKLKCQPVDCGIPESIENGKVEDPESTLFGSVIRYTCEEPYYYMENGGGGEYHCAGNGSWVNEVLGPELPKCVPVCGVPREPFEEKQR
Kind of assay: Human C1s enzyme assay. It counts as biochemical. To be noted: human complement C1s enzyme 1.16 nM, substrate Z-L-Lys-SBzl, A405; read-out: IC50 (Stars). The gist of the method:
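Thioesterase activity followed colorimetrically (DTNB, A405, 30-s reads) using 100 μM Z-L-Lys-SBzl substrate. Enzyme, human serum-derived C1s at 1.16 nM final, was incubated with test compound for 5 min, room temperature, pH 7.5 Tris buffer with 1 M NaCl. Rate-versus-concentration data fitted by nonlinear regression for IC50.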

The term IC50 denotes the point on the concentration scale where inhibition reaches its midpoint. Turning to `C[C@@H](Nc1ncc(N2CCOCC2)n(CC(=O)NCc2cc3cnccc3[nH]2)c1=O)c1ccc2oc3ccccc3c2c1` [Compound 407, (R)—N-((1H-pyrrolo[3,2-c]pyridine-2-yl)methyl)-2-(3-((1-(dibenzo[b,d]furan-2-yl)ethyl)amino)-6-morpholino-2-oxopyrazin-1(2H)-yl)acetamide], the IC50 is below 100 nM.
Regarding `O=C(Cn1c(N2CCOCC2)ncc(NC(=O)c2cnc(-c3ccccc3)o2)c1=O)NCc1cc2cnccc2[nH]1` [Compound 408, N-(1-(2-(((1H-pyrrolo[3,2-c]pyridine-2-yl)methyl)amino)-2-oxoethyl)-2-morpholino-6-oxo-1,6-dihydropyrimidin-5-yl)-2-phenyloxazole-5-carboxamide], the IC50 is below 100 nM.
The result for `O=C(Cn1c(N2CCOCC2)ncc(NC(=O)CCc2ccccc2)c1=O)NCc1cc2cnccc2[nH]1` [Compound 409, N-(1-(2-(((1H-pyrrolo[3,2-c]pyridin-2-yl)methyl)amino)-2-oxoethyl)-2-morpholino-6-oxo-1,6-dihydropyrimidin-5-yl)-3-phenylpropanamide] reads below 100 nM; that for `O=C(Cn1c(N2CCOCC2)ncc(NC(=O)c2ccc(Oc3ccccc3)cc2)c1=O)NCc1cc2cnccc2[nH]1` [Compound 410, N-(1-(2-(((1H-pyrrolo[3,2-c]pyridin-2-yl)methyl)amino)-2-oxoethyl)-2-morpholino-6-oxo-1,6-dihydropyrimidin-5-yl)-4-phenoxybenzamide], below 100 nM; that for `O=C(Cn1c(N2CCOCC2)ncc(NC(=O)c2csc(-c3ccccc3)n2)c1=O)NCc1cc2cnccc2[nH]1` [Compound 411, N-(1-(2-(((1H-pyrrolo[3,2-c]pyridin-2-yl)methyl)amino)-2-oxoethyl)-2-morpholino-6-oxo-1,6-dihydropyrimidin-5-yl)-2-phenylthiazole-4-carbox-amide], below 100 nM.
The result for `O=C(Cn1c(N2CCOCC2)ncc(NCCCc2ccccc2)c1=O)NCc1cc2cnccc2[nH]1` [Compound 412, N-((1H-pyrrolo[3,2-c]pyridine-2-yl)methyl)-2-(2-morpholino-6-oxo-5-((3-phenylpropyl)amino)pyrimidin-1(6H)-yl)acetamide] reads below 100 nM.
`O=C(Cn1c(N2CCOCC2)ncc(NC(=O)c2coc(-c3ccccc3)n2)c1=O)NCc1cc2cnccc2[nH]1` [Compound 413, N-(1-(2-(((1H-pyrrolo[3,2-c]pyridin-2-yl)methyl)amino)-2-oxoethyl)-2-morpholino-6-oxo-1,6-dihydropyrimidin-5-yl)-2-phenyloxazole-4-carbox-amide]: the IC50 was below 100 nM.
The result for `Cc1ncc(NC(=O)c2coc(-c3ccccc3)n2)c(=O)n1CC(=O)NCc1cc2cnccc2[nH]1` [Compound 414, N-(1-(2-(((1H-pyrrolo[3,2-c]pyridine-2-yl)methyl)amino)-2-oxoethyl)-2-methyl-6-oxo-1,6-dihydropyrimidin-5-yl)-2-phenyloxazole-4-carboxamide] reads below 100 nM.
The result for `C[C@@H](Nc1ncc(N2CCCCC2)n(CC(=O)NCc2cc3cnccc3[nH]2)c1=O)c1ccc2oc3ccccc3c2c1` [Compound 415, (R)-N-((1H-pyrrolo[3,2-c]pyridin-2-yl)methyl)-2-(3-((1-(dibenzo[b,d]furan-2-yl)ethyl)-amino)-2-oxo-6-(piperidin-1-yl)pyrazin-1(2H)-yl)acetamide] reads below 100 nM; that for `C[C@@H](Nc1cnc(N2CCCCC2)n(CC(=O)NCc2cc3cnccc3[nH]2)c1=O)c1ccc(-c2ccccc2F)cc1` [Compound 416, (R)-N-((1H-pyrrolo[3,2-c]pyridin-2-yl)methyl)-2-(5-((1-(2′-fluoro-[1,1′-biphenyl]-4-yl)ethyl)amino)-6-oxo-2-(piperidin-1-yl)pyrimidin-1(6H)-yl)acetamide], below 100 nM; that for `C[C@@H](Nc1ncc(N2CCOCC2)n(CC(=O)NCc2cc3cnccc3[nH]2)c1=O)c1ccc(-c2ccccc2F)cc1` [Compound 417, (R)-N-((1H-pyrrolo[3,2-c]pyridin-2-yl)methyl)-2-(3-((1-(2′-fluoro-[1,1′-biphenyl]-4-yl)ethyl)amino)-6-morpholino-2-oxopyrazin-1(2H)-yl)acet-amide], below 100 nM.
Turning to `C[C@@H](Nc1ncc(-c2ccccc2F)n(CC(=O)NCc2cc3cnccc3[nH]2)c1=O)c1ccc(-c2ccccc2F)cc1` [Compound 418, (R)—N-((1H-Pyrrolo[3,2-c]pyridine-2-yl)methyl)-2-(3-((1-(2′-fluoro-[1,1′-biphenyl]-4-yl)ethyl)amino)-6-(2-fluorophenyl)-2-oxopyrazin-1(2H)-yl)acetamide], the IC50 was below 100 nM.
Then `C[C@@H](Nc1ncc(C2CCCC2)n(CC(=O)NCc2cc3cnccc3[nH]2)c1=O)c1ccc2oc3ccccc3c2c1` [Compound 420, (R)-N-((1H-pyrrolo[3,2-c]pyridin-2-yl)methyl)-2-(6-cyclopentyl-3-((1-(dibenzo [b,d]furan-2-yl)ethyl)amino)-2-oxopyrazin-1(2H)-yl)acet-amide], with below 100 nM.
Turning to `C[C@@H](Nc1cnc(N2CCOCC2)n(CC(=O)NCc2cc3cnccc3[nH]2)c1=O)c1ccc(-c2ccccc2F)cc1` [Compound 421, (R)-N-((1H-pyrrolo[3,2-c]pyridin-2-yl)methyl)-2-(5-((1-(2′-fluoro-[1,1′-biphenyl]-4-yl)-ethyl)amino)-2-morpholino-6-oxopyrimidin-1(6H)-yl)acet-amide], the IC50 is below 100 nM.
Then `C[C@@H](Nc1cnc(N2CCCC2)n(CC(=O)NCc2cc3cnccc3[nH]2)c1=O)c1ccc(-c2ccccc2F)cc1` [Compound 422, (R)-N-((1H-pyrrolo[3,2-c]pyridin-2-yl)methyl)-2-(5-((1-(2′-fluoro-[1,1′-biphenyl]-4-yl)ethyl)amino)-6-oxo-2-(pyr-rolidin-1-yl)pyrimidin-1(6H)-yl)acetamide], with below 100 nM; and `C[C@@H](Nc1ncc(N2CCCCC2)n(CC(=O)NCc2cc3cnccc3[nH]2)c1=O)c1ccc(-c2ccccc2F)cc1` [Compound 423, (R)-N-((1H-pyrrolo[3,2-c]pyridin-2-yl)methyl)-2-(3-((1-(2′-fluoro-[1,1′-biphenyl]-4-yl)ethyl)amino)-2-oxo-6-(piperidin-1-yl)pyrazin-1(2H)-yl)acetamide], with below 100 nM; and `C[C@@H](Nc1ncc(N2CCCC(O)C2)n(CC(=O)NCc2cc3cnccc3[nH]2)c1=O)c1ccc2oc3ccccc3c2c1` (stereo partly drawn) [Compound 424, N-((1H-pyrrolo[3,2-c]pyridin-2-yl)methyl)-2-(3-(((R)-1-(dibenzo[b,d]furan-2-yl)ethyl)-amino)-6-(3-hydroxypiperidin-1-yl)-2-oxopyrazin-1(2H)-yl)-acetamide], with below 100 nM.
The result for `C[C@@H](Nc1cnc(-c2ccccc2)n(CC(=O)NCc2cc(Cl)ccc2-n2cnnn2)c1=O)c1ccc2oc3ccccc3c2c1` [Compound 425, (R)-N-(5-chloro-2-(1H-tetra-zol-1-yl)benzyl)-2-(5-((1-(dibenzo[b,d]furan-2-yl)ethyl)-amino)-6-oxo-2-phenylpyrimi-din-1(6H)-yl)acetamide] reads above 1000 nM; that for `C[C@@H](Nc1ncc(C2=CCOCC2)n(CC(=O)NCc2cc3cnccc3[nH]2)c1=O)c1ccc2oc3ccccc3c2c1` [Compound 426, (R)—N-((1H-Pyrrolo[3,2-c]pyridine-2-yl)methyl)-2-(3-((1-(dibenzo[b,d]furan-2-yl)ethyl)amino)-6-(3,6-dihydro-2H-pyran-4-yl)-2-oxopyrazin-1(2H)-yl)acetamide], below 100 nM.
Then `C[C@@H](Nc1ncc(C2=CCCCC2)n(CC(=O)NCc2cc3cnccc3[nH]2)c1=O)c1ccc2oc3ccccc3c2c1` [Compound 427, (R)-N-((1H-pyrrolo[3,2-c]pyridin-2-yl)methyl)-2-(6-(cyclohex-1-en-1-yl)-3-((1-(dibenzo[b,d]furan-2-yl)ethyl)-amino)-2-oxopyrazin-1(2H)-yl)acetamide], with below 100 nM; and `C[C@@H](Nc1ncc(N2CCN(C)CC2)n(CC(=O)NCc2cc3cnccc3[nH]2)c1=O)c1ccc2oc3ccccc3c2c1` [Compound 428, (R)-N-((1H-pyrrolo[3,2-c]pyridin-2-yl)methyl)-2-(3-((1-(dibenzo[b,d]furan-2-yl)ethyl)-amino)-6-(4-methylpiperazin-1-yl)-2-oxopyrazin-1(2H)-yl)-acetamide], with below 100 nM; and `C[C@@H](Nc1ncc(-c2cscn2)n(CC(=O)NCc2cc3cnccc3[nH]2)c1=O)c1ccc2oc3ccccc3c2c1` [Compound 429, (R)-N-((1H-pyrrolo[3,2-c]pyridin-2-yl)methyl)-2-(3-((1-(dibenzo[b,d]furan-2-yl)ethyl)-amino)-2-oxo-6-(thiazol-4-yl)-pyrazin-1(2H)-yl)acetamide], with below 100 nM.
